Laboratory results from patent EP4303307A1, “METHOD FOR PRODUCING FLAVOURS USING O-METHYLTRANSFERASE FROM PLEUROTUS” (Justus-Liebig-Universität Gießen Rechtsabteilung, priority 2022, dated 2024).

Key:
Type in all cases: biochemical, P. sapidus
[1] = test system: O-Methyltransferase; assay: Enzymatic conversion of the thiol substrate, product detected by GC-MS; conditions: compared with blanks (chemical and chemical-biological)
Description: Durch die Umsetzung von 2-Methyl-3-furanthiol als Substrat mit O-Methyltransferase wird beispielhaft das breite, Substanzklassen-übergreifende, Substratspektrum der O-Methyltransferase gezeigt. Neben den unter 6. aufgeführten Substraten werden beispielhaft auch Umsetzungen unter Verwendung von 2-Methyl-3-furanthiol durchgeführt.

[2] = test system: O-Methyltransferase; assay: Enzymatic methylation of further substrates, conversion rates (Table 2); conditions: 34 °C, 500 µM educt, phosphate buffer pH 7,4 (100 mM), 24 h, without shaking; for Produktkonzentration: concentration of the methylated product
Procedure: In Tabelle 2 sind die Umsetzungsraten weiterer Ausführungsbeispiele zusammengestellt, wobei die Reaktionsbedingungen für die Umsetzungen in Tabelle 2 beispielhaft wie folgt ausgewählt wurden: Temperatur 34 °C, jeweils 500 µM Edukt- und Produktkonzentration, Phosphatpuffer pH = 7,4 (100 mM), Reaktionsdauer: 24 h, Durchführung jeweils ohne Schütteln). Tabelle 2: Weitere beispielhaft ausgewählte Umsatzraten

[3] = test system: O-Methyltransferase; assay: Determination of enzyme kinetic parameters (Michaelis-Menten, non-linear regression)
Description: Bekanntermaßen werden Biokatalysatoren, bzw. Enzyme wie O-Methyltransferasen, auch durch die Bestimmung ihrer jeweiligen enzymkinetischen Parameter unter definierten Bedingungen charakterisiert. Daher werden anhand eines Beispiels auch die enzymkinetischen Parameter der O-Methyltransferase bestimmt. Die Versuchsergebnisse sind in Tabelle 1 zusammengestellt. Mit dem Substrat, gegenüber dem die beispielhaft untersuchte O-Methyltransferase die höchste Aktivität aufweist, sowie dem Cofaktor werden die enzymkinetischen Parameter (Km, vmax) graphisch nach nichtlinearer Regression (Michaelis-Menten, Softwarepaket OriginPro 2020) ermittelt (vgl. Fig. 8, Fig. 8A, Fig. 8B). Zudem wird beispielhaft die katalytische Konstante (kcat) sowie die katalytische Effizienz (kcat/Km) berechnet. Die resultierenden Werte sind zusammengefasst in Tabelle 1 aufgeführt. Tabelle 1: Enzymkinetische Parameter der aus P. sapidus abgeleiteten O-Methyltransferase unter Verwendung von p-Hydroxybenzaldehyd als Substrat
Fig. 1: Korrelation der Anzahl der Transkriptionskopien und der Peakflächen (normiert auf internen Standard) von p-Anisaldehyd der DK5 und MK57 Kulturen. Fig. 2: SDS-PAGE-Gel der O-Methyltransferase (L: Lysat von E. coli, P: Protein nach Reinigung mittels FPLC) und Western Blot Membran (Anti-His-Tag Antikörper). Fig. 3: Beispielhafte Umsetzung von p-Hydroxybenzaldehyd (500 µM) und SAM (500 µM) mittels O-Methyltransferase (0,16 µM) in Davies Puffer über 2 h (jeweils im Triplikat) zur Ermittlung des pH-Optimums; bei den für die Ordinatenachse gewählten willkürlichen Einheiten handelt es sich um die gerätetypische Quantifizierung der Peakfläche von p-Anisaldehyd im Chromatogramm der jeweiligen Probe aus der betreffenden Reaktionslösung nach Abschluss der Umsetzung. Fig. 4: Beispielhafte Umsetzung von p-Hydroxybenzaldehyd (500 µM) und SAM (500 µM) mittels O-Methyltransferase (0,16 µM) in 0,1 M Phosphatpuffer über 2 h bei 24 °C (jeweils im Triplikat) zur weiteren Ermittlung des pHOptimums. […]

| SMILES | Umsetzungsrate [2] [%] | Produktkonzentration [2] | other results |
| --- | --- | --- | --- |
| Cc1occc1S [2-Methyl-3-furanthiol] |  |  | Bildung des methylierten Produktes [1]: gesteigerte Bildung des methylierten Produktes |
| O=c1ccc2cc(O)ccc2o1 [6-Hydroxycoumarin] | 2 | 11,5 ± 0,3 µM |  |
| COc1cc(C=O)ccc1O [Vanillin] | 5 | 23,8 ± 0,9 µM |  |
| O=Cc1ccc(O)cc1 [p-Hydroxybenzaldehyd] |  |  | katalytische Konstante (kcat) ([3]; calculated, p-Hydroxybenzaldehyd as substrate): 2,5 s^-1; mittlere maximale Geschwindigkeit (vmax) ([3]; substrate with SAM (500 µM), enzyme 0,16 µM, 0,1 M phosphate buffer pH 7,4, 34 °C, 20 min): 43,7 mU mg^-1; Km ([3]; substrate with SAM (500 µM), enzyme 0,16 µM, 0,1 M phosphate buffer pH 7,4, 34 °C, 20 min, read-out: mittlere Michaelis-Menten-Konstante (Km)): 79 µM |
